Measured values from the kinase profiling compilation of Christmann-Franck et al. (2016).

Columns and labels:
Experiment in all cases: radiometric filter-binding kinase assay, Kinase HotSpot
Conditions in all cases: compound 0.5 µM; ATP 10 µM
[1] = target: MAP3K11 (human) (UniProt Q16584)
[2] = target: GRK6 (human) (UniProt P43250)
[3] = target: LRRK2 (human) (UniProt Q5S007)
[4] = target: EPHB3 (human) (UniProt P54753)
[5] = target: CDK6 CCND1 (human) (UniProt Q00534+P24385)
[6] = target: WEE1 (human) (UniProt P30291)
[7] = target: CAMK1 (human) (UniProt Q14012)
[8] = target: PRKG2 (human) (UniProt Q13237)
[9] = target: NEK7 (human) (UniProt Q8TDX7)
[10] = target: CLK4 (human) (UniProt Q9HAZ1)
[11] = target: PAK3 (human) (UniProt O75914)
[12] = target: NTRK1 (human) (UniProt P04629)
[13] = target: NEK9 (human) (UniProt Q8TD19)
[14] = target: PLK1 (human) (UniProt P53350)
[15] = target: MAPKAPK5 (human) (UniProt Q8IW41)
[16] = target: PRKCG (human) (UniProt P05129)
[17] = target: PDPK1 (human) (UniProt O15530)
[18] = target: MARK2 (human) (UniProt Q7KZI7)
[19] = target: PAK2 (human) (UniProt Q13177)
[20] = target: ROCK2 (human) (UniProt O75116)
[21] = target: AXL (human) (UniProt P30530)
[22] = target: NEK1 (human) (UniProt Q96PY6)
[23] = target: ZAP70 (human) (UniProt P43403)
[24] = target: FGFR4 (human) (UniProt P22455)
[25] = target: STK17A (human) (UniProt Q9UEE5)
[26] = target: STK24 (human) (UniProt Q9Y6E0)
[27] = target: MAP3K10 (human) (UniProt Q02779)
[28] = target: CDK9 CCNT1 (human) (UniProt P50750+O60563)
[29] = target: LTK (human) (UniProt P29376)
[30] = target: RPS6KA3 KD1 KD2 (human) (UniProt P51812)
[31] = target: ADRBK2 (human) (UniProt P35626)
[32] = target: RPS6KA1 KD1 KD2 (human) (UniProt Q15418)
[33] = target: SRMS (human) (UniProt Q9H3Y6)
[34] = target: STK25 (human) (UniProt O00506)
[35] = target: PAK4 (human) (UniProt O96013)
[36] = target: MST1R (human) (UniProt Q04912)
[37] = target: MAPK12 (human) (UniProt P53778)
[38] = target: PLK2 (human) (UniProt Q9NYY3)
[39] = target: RET (human) (UniProt P07949)
[40] = target: CSNK1A1 (human) (UniProt P48729)
[41] = target: TAOK1 (human) (UniProt Q7L7X3)
[42] = target: SIK2 (human) (UniProt Q9H0K1)

MAP3K11 (human), sequence (Q16584 whole entry, looked up): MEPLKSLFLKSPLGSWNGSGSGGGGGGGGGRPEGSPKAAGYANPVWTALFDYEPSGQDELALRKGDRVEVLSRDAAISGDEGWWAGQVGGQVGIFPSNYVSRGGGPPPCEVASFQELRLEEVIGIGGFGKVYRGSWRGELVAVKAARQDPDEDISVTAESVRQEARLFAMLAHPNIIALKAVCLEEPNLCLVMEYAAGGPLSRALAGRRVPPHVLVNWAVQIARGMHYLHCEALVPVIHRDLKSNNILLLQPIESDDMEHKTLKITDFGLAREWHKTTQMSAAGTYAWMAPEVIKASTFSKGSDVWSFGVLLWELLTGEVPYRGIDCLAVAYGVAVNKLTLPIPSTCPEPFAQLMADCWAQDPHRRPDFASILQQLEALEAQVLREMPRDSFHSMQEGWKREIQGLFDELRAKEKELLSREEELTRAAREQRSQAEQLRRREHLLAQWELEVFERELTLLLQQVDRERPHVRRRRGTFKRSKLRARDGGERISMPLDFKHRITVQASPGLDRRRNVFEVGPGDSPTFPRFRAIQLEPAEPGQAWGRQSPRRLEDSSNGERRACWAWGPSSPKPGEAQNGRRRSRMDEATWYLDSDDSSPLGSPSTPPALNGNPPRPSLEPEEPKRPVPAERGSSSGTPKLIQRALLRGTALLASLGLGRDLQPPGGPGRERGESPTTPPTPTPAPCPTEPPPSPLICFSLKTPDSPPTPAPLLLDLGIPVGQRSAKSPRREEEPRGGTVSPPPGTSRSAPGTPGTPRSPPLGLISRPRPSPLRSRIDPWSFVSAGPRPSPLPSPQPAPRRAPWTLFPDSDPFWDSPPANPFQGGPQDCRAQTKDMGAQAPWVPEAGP
MAPK12 (human), sequence (P53778 whole entry, looked up): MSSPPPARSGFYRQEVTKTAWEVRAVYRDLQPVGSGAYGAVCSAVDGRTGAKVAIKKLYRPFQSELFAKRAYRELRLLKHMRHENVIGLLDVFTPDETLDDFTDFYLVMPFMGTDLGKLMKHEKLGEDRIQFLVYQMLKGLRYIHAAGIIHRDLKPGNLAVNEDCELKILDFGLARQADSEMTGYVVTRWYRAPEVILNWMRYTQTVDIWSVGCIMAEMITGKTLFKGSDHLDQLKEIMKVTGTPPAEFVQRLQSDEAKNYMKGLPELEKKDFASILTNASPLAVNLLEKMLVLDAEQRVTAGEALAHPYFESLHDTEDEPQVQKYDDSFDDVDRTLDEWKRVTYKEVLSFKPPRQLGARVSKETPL
RPS6KA3 KD1 KD2 (human), sequence (P51812 whole entry, looked up): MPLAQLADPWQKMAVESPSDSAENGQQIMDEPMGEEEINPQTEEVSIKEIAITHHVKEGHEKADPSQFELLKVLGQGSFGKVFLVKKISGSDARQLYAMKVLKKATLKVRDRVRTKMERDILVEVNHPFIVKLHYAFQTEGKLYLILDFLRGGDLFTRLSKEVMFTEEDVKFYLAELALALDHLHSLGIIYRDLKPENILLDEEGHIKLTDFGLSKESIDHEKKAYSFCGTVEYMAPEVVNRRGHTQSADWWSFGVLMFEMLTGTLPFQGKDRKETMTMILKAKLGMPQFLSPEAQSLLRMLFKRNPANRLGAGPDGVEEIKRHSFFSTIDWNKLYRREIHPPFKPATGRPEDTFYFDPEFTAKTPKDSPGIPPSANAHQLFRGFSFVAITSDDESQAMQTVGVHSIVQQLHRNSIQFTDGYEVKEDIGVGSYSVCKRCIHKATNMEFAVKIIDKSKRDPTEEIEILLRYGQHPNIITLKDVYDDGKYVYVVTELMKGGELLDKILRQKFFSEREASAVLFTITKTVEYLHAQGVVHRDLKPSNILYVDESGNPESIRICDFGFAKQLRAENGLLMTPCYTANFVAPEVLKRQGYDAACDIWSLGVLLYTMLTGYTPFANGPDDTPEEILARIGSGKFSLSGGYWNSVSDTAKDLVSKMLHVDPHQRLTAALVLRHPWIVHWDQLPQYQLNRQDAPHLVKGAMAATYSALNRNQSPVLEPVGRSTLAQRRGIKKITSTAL
ROCK2 (human), sequence (O75116 whole entry, looked up): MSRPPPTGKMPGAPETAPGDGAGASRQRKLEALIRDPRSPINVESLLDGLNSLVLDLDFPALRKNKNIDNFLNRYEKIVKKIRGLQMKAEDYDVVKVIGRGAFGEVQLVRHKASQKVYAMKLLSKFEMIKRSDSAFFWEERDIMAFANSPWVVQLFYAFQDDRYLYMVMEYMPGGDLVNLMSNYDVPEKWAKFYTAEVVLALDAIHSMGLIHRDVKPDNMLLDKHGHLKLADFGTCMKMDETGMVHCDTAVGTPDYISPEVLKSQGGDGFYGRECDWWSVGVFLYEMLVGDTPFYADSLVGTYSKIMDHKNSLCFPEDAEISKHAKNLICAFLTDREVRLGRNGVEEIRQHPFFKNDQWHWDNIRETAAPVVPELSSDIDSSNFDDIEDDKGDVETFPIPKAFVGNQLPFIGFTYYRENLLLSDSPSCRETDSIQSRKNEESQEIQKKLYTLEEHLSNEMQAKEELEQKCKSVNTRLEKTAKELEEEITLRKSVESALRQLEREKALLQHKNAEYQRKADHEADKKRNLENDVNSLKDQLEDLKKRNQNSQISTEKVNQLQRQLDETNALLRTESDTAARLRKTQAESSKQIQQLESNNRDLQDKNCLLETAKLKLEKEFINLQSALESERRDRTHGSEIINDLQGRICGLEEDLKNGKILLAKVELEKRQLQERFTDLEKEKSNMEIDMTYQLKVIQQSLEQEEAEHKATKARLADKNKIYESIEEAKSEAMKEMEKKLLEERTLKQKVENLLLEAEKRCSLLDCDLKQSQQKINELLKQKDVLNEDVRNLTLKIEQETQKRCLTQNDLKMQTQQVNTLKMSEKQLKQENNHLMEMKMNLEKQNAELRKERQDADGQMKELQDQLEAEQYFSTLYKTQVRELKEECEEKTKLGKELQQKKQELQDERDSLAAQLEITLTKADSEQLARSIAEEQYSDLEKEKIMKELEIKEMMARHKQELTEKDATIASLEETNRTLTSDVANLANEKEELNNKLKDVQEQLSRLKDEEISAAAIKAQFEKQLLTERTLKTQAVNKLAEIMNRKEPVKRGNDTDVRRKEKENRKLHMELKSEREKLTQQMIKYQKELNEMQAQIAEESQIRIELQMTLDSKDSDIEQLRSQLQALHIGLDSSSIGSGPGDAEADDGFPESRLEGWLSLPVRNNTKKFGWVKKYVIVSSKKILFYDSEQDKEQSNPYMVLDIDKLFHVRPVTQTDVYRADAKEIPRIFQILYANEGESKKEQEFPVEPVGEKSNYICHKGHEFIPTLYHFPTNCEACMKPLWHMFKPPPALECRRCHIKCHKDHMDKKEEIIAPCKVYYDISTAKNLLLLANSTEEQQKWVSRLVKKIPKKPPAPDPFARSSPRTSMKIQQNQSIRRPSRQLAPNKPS
STK24 (human), sequence (Q9Y6E0 whole entry, looked up): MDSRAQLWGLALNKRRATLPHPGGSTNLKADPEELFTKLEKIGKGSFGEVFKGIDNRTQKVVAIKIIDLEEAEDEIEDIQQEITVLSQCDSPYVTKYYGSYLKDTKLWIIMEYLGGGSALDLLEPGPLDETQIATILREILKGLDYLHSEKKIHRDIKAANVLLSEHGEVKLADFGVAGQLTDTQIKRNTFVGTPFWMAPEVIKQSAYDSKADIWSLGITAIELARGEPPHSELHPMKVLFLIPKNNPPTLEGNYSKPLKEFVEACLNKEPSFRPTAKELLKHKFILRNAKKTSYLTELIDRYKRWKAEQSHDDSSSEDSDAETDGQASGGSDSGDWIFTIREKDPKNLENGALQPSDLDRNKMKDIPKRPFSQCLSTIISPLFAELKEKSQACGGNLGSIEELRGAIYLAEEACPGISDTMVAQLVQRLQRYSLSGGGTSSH
CSNK1A1 (human), sequence (P48729 whole entry, looked up): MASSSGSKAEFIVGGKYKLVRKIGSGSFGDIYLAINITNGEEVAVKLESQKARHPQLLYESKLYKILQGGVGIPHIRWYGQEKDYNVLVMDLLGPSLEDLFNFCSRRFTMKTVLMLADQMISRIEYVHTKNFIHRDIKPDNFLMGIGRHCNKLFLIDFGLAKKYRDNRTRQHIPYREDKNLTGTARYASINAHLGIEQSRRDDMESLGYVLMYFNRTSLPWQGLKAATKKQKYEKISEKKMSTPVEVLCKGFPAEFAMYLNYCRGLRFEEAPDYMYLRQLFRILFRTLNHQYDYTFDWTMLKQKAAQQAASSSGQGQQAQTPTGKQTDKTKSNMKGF
NEK7 (human), sequence (Q8TDX7 whole entry, looked up): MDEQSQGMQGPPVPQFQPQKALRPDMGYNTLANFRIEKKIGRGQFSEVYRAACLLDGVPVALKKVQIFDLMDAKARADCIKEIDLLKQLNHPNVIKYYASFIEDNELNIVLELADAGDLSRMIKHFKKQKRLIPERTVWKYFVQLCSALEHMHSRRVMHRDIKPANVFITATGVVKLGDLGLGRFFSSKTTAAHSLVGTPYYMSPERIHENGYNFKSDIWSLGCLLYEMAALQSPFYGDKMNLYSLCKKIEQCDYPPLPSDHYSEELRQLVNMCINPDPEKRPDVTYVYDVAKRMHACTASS
GRK6 (human), sequence (P43250 whole entry, looked up): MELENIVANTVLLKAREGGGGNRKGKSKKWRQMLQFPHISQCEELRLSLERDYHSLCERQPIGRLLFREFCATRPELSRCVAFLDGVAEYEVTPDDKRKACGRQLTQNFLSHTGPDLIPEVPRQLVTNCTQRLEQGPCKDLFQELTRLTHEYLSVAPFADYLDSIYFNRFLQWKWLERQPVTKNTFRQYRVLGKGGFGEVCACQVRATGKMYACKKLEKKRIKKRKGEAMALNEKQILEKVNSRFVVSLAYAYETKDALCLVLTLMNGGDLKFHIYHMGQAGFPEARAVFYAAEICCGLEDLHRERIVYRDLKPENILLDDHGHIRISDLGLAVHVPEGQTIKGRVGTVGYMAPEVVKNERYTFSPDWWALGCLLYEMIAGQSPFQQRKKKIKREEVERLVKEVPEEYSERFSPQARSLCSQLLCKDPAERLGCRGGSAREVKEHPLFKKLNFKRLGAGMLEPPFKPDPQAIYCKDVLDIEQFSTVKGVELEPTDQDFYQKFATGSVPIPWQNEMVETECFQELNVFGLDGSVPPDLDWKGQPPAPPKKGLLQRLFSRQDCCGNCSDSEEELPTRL

FC(F)(F)c1ccc(/C=C/c2nc(COc3ccc(CCCCn4ccnn4)cc3)co2)cc1
residual activity [1]: 99.1%
residual activity [2]: 104%
residual activity [3]: 94.8%
residual activity [4]: 94.9%
residual activity [5]: 95.4%
residual activity [6]: 101%
residual activity [7]: 105%
residual activity [8]: 89.9%
residual activity [9]: 94.6%
residual activity [10]: 101%
residual activity [11]: 101%
residual activity [12]: 103%
residual activity [13]: 95.5%
residual activity [14]: 98.3%
residual activity [15]: 101%
residual activity [16]: 95.2%
residual activity [17]: 104%
residual activity [18]: 105%
residual activity [19]: 113%
residual activity [20]: 99.7%
residual activity [21]: 101%
residual activity [22]: 94.5%
residual activity [23]: 115%
residual activity [24]: 88.3%
residual activity [25]: 103%
residual activity [26]: 101%
residual activity [27]: 98.9%
residual activity [28]: 99.5%
residual activity [29]: 104%
residual activity [30]: 96.8%
residual activity [31]: 104%
residual activity [32]: 97.9%
residual activity [33]: 93.5%
residual activity [34]: 91.8%
residual activity [35]: 107%
residual activity [36]: 104%
residual activity [37]: 98.3%
residual activity [38]: 99.7%
residual activity [39]: 101%
residual activity [40]: 98.4%
residual activity [41]: 102%
residual activity [42]: 103%

O=C1NC(=O)c2c1c1c3ccccc3[nH]c1c1[nH]c3cc(Br)ccc3c21
residual activity [1]: 14%
residual activity [2]: 108%
residual activity [3]: 49.8%
residual activity [4]: 91.9%
residual activity [5]: 12.2%
residual activity [6]: 74.6%
residual activity [7]: 99%
residual activity [8]: 29.7%
residual activity [9]: 96.8%
residual activity [10]: 49.5%
residual activity [11]: 97.7%
residual activity [12]: 82.2%
residual activity [13]: 83.6%
residual activity [14]: 91.2%
residual activity [15]: 86.2%
residual activity [16]: 76.6%
residual activity [17]: 66.1%
residual activity [18]: 40.4%
residual activity [19]: 101%
residual activity [20]: 72.7%
residual activity [21]: 82.9%
residual activity [22]: 89.1%
residual activity [23]: 104%
residual activity [24]: 90.6%
residual activity [25]: 29.5%
residual activity [26]: 80.1%
residual activity [27]: 70.4%
residual activity [28]: 87.5%
residual activity [29]: 89.9%
residual activity [30]: 46.3%
residual activity [31]: 95.2%
residual activity [32]: 58.4%
residual activity [33]: 91.5%
residual activity [34]: 84.4%
residual activity [35]: 96.4%
residual activity [36]: 101%
residual activity [37]: 100%
residual activity [38]: 93.7%
residual activity [39]: 80.1%
residual activity [40]: 95.4%
residual activity [41]: 68.4%
residual activity [42]: 80.4%
